A short description of data set [1]: Cytotoxicity against mouse RAW264.7 cells assessed as inhibition of cell growth incubated for 24 hrs by MTT assay. Type of data set: toxicity, cell-based.
For another data set, the system named is RAW264.7. The data set can be described thus: Cytotoxicity against mouse RAW264.7 cells assessed as reduction in cell viability at 30 uM incubated for 24 hrs by MTT assay relative to control. It counts as toxicity, cell-based. The settings on record: raw264.7, 24 h.

Structures are written as SMILES.

As for `CC(=O)O[C@H]1C[C@@]2(C)[C@@H](C[C@@H](O)[C@H]3[C@@]4(C)CC[C@@H](O)[C@@H](C)[C@@H]4CC[C@@]32C)/C1=C(\CCC=C(C)C)C(=O)OCc1cc(-c2ccc(Cl)cc2)no1`, the IC50 at 24 h in data set [1] was determined as 42 µM. Further, the Activity in the data set on RAW264.7 was determined as 103.94%.
Turning to `CC(=O)O[C@H]1C[C@@]2(C)[C@@H](C[C@@H](O)[C@H]3[C@@]4(C)CC[C@@H](O)[C@@H](C)[C@@H]4CC[C@@]32C)/C1=C(\CCC=C(C)C)C(=O)OCc1cn(-c2ccc(C)cc2)nn1`, in data set [1], the concentration for half-maximal inhibition (IC50) at 24 h came out at 89.6 µM. For the same compound, the Activity with RAW264.7 is recorded as 96.68%.
With `COc1ccc(-n2cc(COC(=O)/C(CCC=C(C)C)=C3\[C@@H](OC(C)=O)C[C@@]4(C)[C@H]3C[C@@H](O)[C@H]3[C@@]5(C)CC[C@@H](O)[C@@H](C)[C@@H]5CC[C@@]34C)nn2)cc1OC`, the IC50 at 24 h in data set [1] was found to be 76.6 µM. For the same compound, the Activity in the data set on RAW264.7 is listed as 102.78%.
As to `COc1cc(-c2nnc(COC(=O)/C(CCC=C(C)C)=C3\[C@@H](OC(C)=O)C[C@@]4(C)[C@H]3C[C@@H](O)[C@H]3[C@@]5(C)CC[C@@H](O)[C@@H](C)[C@@H]5CC[C@@]34C)o2)cc(OC)c1OC`, the 50% inhibitory concentration (IC50) at 24 h in data set [1] turned out to be 129 µM. The Activity with RAW264.7 was 97.84%.
As for `CC(=O)O[C@H]1C[C@@]2(C)[C@@H](C[C@@H](O)[C@H]3[C@@]4(C)CC[C@@H](O)[C@@H](C)[C@@H]4CC[C@@]32C)/C1=C(\CCC=C(C)C)C(=O)OCc1cn(-c2ccc(F)cc2)nn1`, in data set [1], the half-maximal inhibitory concentration (IC50) at 24 h was 46.5 µM. The Activity in the data set on RAW264.7 was 100.85%.
On the same counts, the results for `COc1ccc(-c2cc(COC(=O)/C(CCC=C(C)C)=C3\[C@@H](OC(C)=O)C[C@@]4(C)[C@H]3C[C@@H](O)[C@H]3[C@@]5(C)CC[C@@H](O)[C@@H](C)[C@@H]5CC[C@@]34C)on2)cc1` are 77.2 µM and 97.68%.
For the compound `CC(=O)O[C@H]1C[C@@]2(C)[C@@H](C[C@@H](O)[C@H]3[C@@]4(C)CC[C@@H](O)[C@@H](C)[C@@H]4CC[C@@]32C)/C1=C(\CCC=C(C)C)C(=O)OCc1cn(Cc2ccccc2)nn1`, in data set [1], the half-maximal inhibitory concentration (IC50) at 24 h was 88.3 µM. The Activity with RAW264.7 was 98.53%.
As to `CC(=O)O[C@H]1C[C@@]2(C)[C@@H](C[C@@H](O)[C@H]3[C@@]4(C)CC[C@@H](O)[C@@H](C)[C@@H]4CC[C@@]32C)/C1=C(\CCC=C(C)C)C(=O)OCc1cc(-c2ccccc2)no1`, the half-maximal inhibitory concentration (IC50) at 24 h in data set [1] is 93 µM. Also, in the data set with RAW264.7, the Activity is 104.11%.
As to `CC(=O)O[C@H]1C[C@@]2(C)[C@@H](C[C@@H](O)[C@H]3[C@@]4(C)CC[C@@H](O)[C@@H](C)[C@@H]4CC[C@@]32C)/C1=C(\CCC=C(C)C)C(=O)OCc1nnc(-c2ccc(F)cc2)o1`, the IC50 at 24 h in data set [1] was found to be 47.9 µM. Further, the Activity in the data set on RAW264.7 came to 102.47%.
As for `CC(=O)O[C@H]1C[C@@]2(C)[C@@H](C[C@@H](O)[C@H]3[C@@]4(C)CC[C@@H](O)[C@@H](C)[C@@H]4CC[C@@]32C)/C1=C(\CCC=C(C)C)C(=O)OCc1cn(Cc2ccc(Cl)c(Cl)c2)nn1`, in data set [1], the IC50 at 24 h came to 49.8 µM. Besides, the Activity in the data set on RAW264.7 is reported as 100.62%.
As to `CC(=O)O[C@H]1C[C@@]2(C)[C@@H](C[C@@H](O)[C@H]3[C@@]4(C)CC[C@@H](O)[C@@H](C)[C@@H]4CC[C@@]32C)/C1=C(\CCC=C(C)C)C(=O)OCc1cc(-c2ccc(F)cc2)no1`, the IC50 at 24 h in data set [1] amounted to 62.4 µM. For the same compound, in the data set on RAW264.7, the Activity is given as 103.63%.
As to `CC(=O)O[C@H]1C[C@@]2(C)[C@@H](C[C@@H](O)[C@H]3[C@@]4(C)CC[C@@H](O)[C@@H](C)[C@@H]4CC[C@@]32C)/C1=C(\CCC=C(C)C)C(=O)OCc1cn(-c2ccc(Br)cc2)nn1`, the 50% inhibitory concentration (IC50) at 24 h in data set [1] was 54.5 µM. Also, the Activity in the data set on RAW264.7 amounted to 92.58%.
`CC(=O)O[C@H]1C[C@@]2(C)[C@@H](C[C@@H](O)[C@H]3[C@@]4(C)CC[C@@H](O)[C@@H](C)[C@@H]4CC[C@@]32C)/C1=C(\CCC=C(C)C)C(=O)OCc1cn(Cc2ccc(C)cc2)nn1`: the IC50 at 24 h in data set [1] came to 121 µM. Besides, the Activity in the data set on RAW264.7 is on record as 105.96%.
On the same counts, the results for `COc1ccc(-c2cc(COC(=O)/C(CCC=C(C)C)=C3\[C@@H](OC(C)=O)C[C@@]4(C)[C@H]3C[C@@H](O)[C@H]3[C@@]5(C)CC[C@@H](O)[C@@H](C)[C@@H]5CC[C@@]34C)on2)cc1OC` are 87.3 µM and 100.7%.
For `CC(=O)O[C@H]1C[C@@]2(C)[C@@H](C[C@@H](O)[C@H]3[C@@]4(C)CC[C@@H](O)[C@@H](C)[C@@H]4CC[C@@]32C)/C1=C(\CCC=C(C)C)C(=O)OCc1cn(Cc2ccc(F)cc2)nn1` the same measures were 68.7 µM and 103.74%.
In the case of `CC(=O)O[C@H]1C[C@@]2(C)[C@@H](C[C@@H](O)[C@H]3[C@@]4(C)CC[C@@H](O)[C@@H](C)[C@@H]4CC[C@@]32C)/C1=C(\CCC=C(C)C)C(=O)OCc1nnc(-c2ccccc2)o1`, in data set [1], the half-maximal inhibitory concentration (IC50) at 24 h amounted to 40.1 µM. In addition, in the data set with RAW264.7, the Activity turned out to be 102.94%.
As for `COc1ccc(-n2cc(COC(=O)/C(CCC=C(C)C)=C3\[C@@H](OC(C)=O)C[C@@]4(C)[C@H]3C[C@@H](O)[C@H]3[C@@]5(C)CC[C@@H](O)[C@@H](C)[C@@H]5CC[C@@]34C)nn2)cc1`, the 50% inhibitory concentration (IC50) at 24 h in data set [1] came to 43.6 µM. In addition, the Activity in the data set with RAW264.7 was found to be 99.38%.
For `CC(=O)O[C@H]1C[C@@]2(C)[C@@H](C[C@@H](O)[C@H]3[C@@]4(C)CC[C@@H](O)[C@@H](C)[C@@H]4CC[C@@]32C)/C1=C(\CCC=C(C)C)C(=O)OCc1cn(-c2ccc(Cl)c(Cl)c2)nn1` the same measures were 56.1 µM and 104.17%.
On the same counts, the results for `CC(=O)O[C@H]1C[C@@]2(C)[C@@H](C[C@@H](O)[C@H]3[C@@]4(C)CC[C@@H](O)[C@@H](C)[C@@H]4CC[C@@]32C)/C1=C(\CCC=C(C)C)C(=O)OCc1cn(Cc2ccc(Br)cc2)nn1` are 88.7 µM and 100.93%.
For the compound `CC(=O)O[C@H]1C[C@@]2(C)[C@@H](C[C@@H](O)[C@H]3[C@@]4(C)CC[C@@H](O)[C@@H](C)[C@@H]4CC[C@@]32C)/C1=C(\CCC=C(C)C)C(=O)OCc1nnc(-c2ccc(Cl)cc2)o1`, in data set [1], the half-maximal inhibitory concentration (IC50) at 24 h turned out to be 44.3 µM. Further, the Activity with RAW264.7 came out at 103.01%.
On the same counts, the results for `COc1cc(Cn2cc(COC(=O)/C(CCC=C(C)C)=C3\[C@@H](OC(C)=O)C[C@@]4(C)[C@H]3C[C@@H](O)[C@H]3[C@@]5(C)CC[C@@H](O)[C@@H](C)[C@@H]5CC[C@@]34C)nn2)cc(OC)c1OC` are 56.1 µM and 97.45%.
With `CC(=O)O[C@H]1C[C@@]2(C)[C@@H](C[C@@H](O)[C@H]3[C@@]4(C)CC[C@@H](O)[C@@H](C)[C@@H]4CC[C@@]32C)/C1=C(\CCC=C(C)C)C(=O)OCc1cn(-c2ccc([N+](=O)[O-])cc2)nn1`, the IC50 at 24 h in data set [1] was 120 µM. In the data set with RAW264.7, the Activity is reported as 101.62%.
On to `COc1ccc(Cn2cc(COC(=O)/C(CCC=C(C)C)=C3\[C@@H](OC(C)=O)C[C@@]4(C)[C@H]3C[C@@H](O)[C@H]3[C@@]5(C)CC[C@@H](O)[C@@H](C)[C@@H]5CC[C@@]34C)nn2)cc1`, for which the IC50 at 24 h in data set [1] amounted to 110 µM. Further, the Activity with RAW264.7 came to 100.31%.

The record behind these values is ChEMBL document CHEMBL5625219, “Design, synthesis fusidic acid derivatives alleviate acute lung injury via inhibiting MAPK/NF-κB/NLRP3 pathway” (Eur J Med Chem, 2023).
